Data: patent US8518903B2, “Use of toll-like receptor-9 agonists” (University of Pittsburgh—of the Commonwealth System of …, priority 2007, dated 2013)

Legend:
[1] = test system: experimental NEC in newborn mice; assay: Murine NEC model in NFkB-GFP transgenic mice (histology, mucosal TNF-α RTPCR, NFκB activation); type: in vivo, mouse
Procedure: FIG. 27A-G. CpG-ODN-HS and CpG-DNA reduce the development of experimental NEC in vivo in newborn mice. Newborn NEC and control mice were injected with CpG-ODN-HS or CpG-DNA. A. Histology (H&E) of terminal ileum of breast fed mouse. B. Histology (H&E) of terminal ileum of mouse after induction of NEC. C. Histology (H&E) of terminal ileum of mouse treated with CpG-DNA, after which conditions which induced NEC were applied. D. Histology (H&E) of terminal ileum of mouse treated with CpG-ODN-HS, after which conditions which induced NEC were applied. E. Histology (H&E) of terminal ileum of breast fed mouse treated with CpG-ODN-HS. F. Histology (H&E) of terminal ileum of breast fed mouse treated with CpG-DNA. G. Severity of NEC in newborn mice as scored by a blinded pediatric pathologist. *p<0.05 vs. NEC in saline-injected mice.
FIG. 28. CpG-ODN-HS and CpG-DNA reduce the expression of mucosal TNF-α in NEC newborn mice in vivo.
FIG. 29A-D. Confocal microscopy showing the extent of NFkB activation in mice with NEC in the absence or presence of CpG-ODN-HS. CpG-ODN-HS reduces the level of NFkB activation in NEC newborn mice in vivo. The mice express NFkB-GFP, and sections were stained with anti-GFP antibody (red; arrow).
The effect of the TLR9 agonist CpG-ODN 5′ […] 3′ (SEQ ID NO:10; referred to herein as CpG-ODN-HS) on the mediator of activated TLR4, NFκB, was examined in a murine NEC model (previously described, above). The effect of CpG-ODN-HS on inflammation in the NEC murine model was also examined as a measured by TNF-α expression, which is an index of inflammation.
Materials and methods. Phosphorothioated CpG-ODN-HS and oligodeoxynucleotide (ODN) 1826 ([…]) (SEQ ID NO:6; referred to herein as CpG-DNA) were synthesized by the University of Pittsburgh DNA synthesis facility. ODNs were confirmed to be endotoxin-free by Limulus assay. NFkB-GFP antibody was obtained from Santa Cruz and Abcam. The extent of nuclear translocation was determined in an adaptation of the methodology of Ding and colleagues. In brief, a threshold limit was set based upon the emission signal for the nuclear stain DRAQ5, which therefore defined a nuclear region of interest (ROI). To define a corresponding cytoplasmic region of interest, a circular region 12 pixels beyond the nucleus was stenciled upon each cell. The average integrated pixel intensity pertaining to the corresponding NFkB emission within the cytoplasmic and nuclear regions was then determined for more than 200 cells per treatment group in at least four experiments per group, using MetaMorph software version 6.1 (Molecular Devices Corporation, Downingtown, Pa.).
Mucosal TNF-α expression was measured using quantitative real-time PCR (RTPCR). Quantitative real-time PCR in cultured enterocytes and intestinal tissue using the BioRad iCycler (Biorad, Hercules, CA) was performed as in (Leaphart, C. L., J. Cavallo, S. C. Gribar, S. Cetin, J. Li, M. F. Branca, T. D. Dubowski, C. P. Sodhi, and D. J. Hackam. 2007. A Critical Role for TLR4 in the Pathogenesis of Necrotizing Enterocolitis by Modulating Intestinal Injury and Repair. J Immunology 179:4808-4820). Oligonucleotide primer pairs used for RTPCR were as follows: forward: 5′ […] 3′ (SEQ ID NO:14), reverse: 5′ […] 3′ (SEQ ID NO:15); and forward: 5′ […] 3′ (SEQ ID NO:16), reverse: 5′ […] 3′ (SEQ ID NO:17). Gene expression was normalized to β-actin expression. Where indicated, gene expression was assessed on 2.5% agarose gels using ethidium bromide staining. […]

TLR4 = TLR4 distribution and expression in enterocytes after MDP (immunohistochemistry, RT-PCR); type: in vivo, mouse
Procedure: FIG. 25. MDP treatment decreases TLR4 expression in enterocytes. Newborn mice were treated with LPS after pre-treatment with either saline or MDP. Three hours later mucosal scrapings were harvested from the terminal ileum, and subjected to RT-PCR for expression of TLR4. Representative of 4 separate experiments. Duplicate samples are shown for each group.
MDP treatment of enterocytes reduces the expression of TLR4. The next series of studies investigated the potential mechanisms by which MDP activation of NOD2 could lead to a reduction in the extent of TLR4 signaling.

[2] = test system: models of ulcerative colitis; settings: previous reports; cited from earlier work
[3] = test system: wild-type and NOD2-knockout mice; assay: Serum IL-6 release in LPS-injected wild-type and NOD2-knockout mice (ELISA); type: in vivo, mouse; settings: LPS 5 mg/kg, MDP 1 mg/kg
Procedure: (§1) FIG. 24A-C. MDP inhibits TLR4 signaling in enterocytes. A. IL-6 release in vitro as determined by ELISA in IEC-6 cells that were either untreated, or treated with LPS in the presence or absence of MDP. B. Serum IL-6 release in vivo in wild-type (open bars) and NOD2-deficient mice (solid bars) that were either pre-treated with saline or MDP then injected with LPS. C. SDS-PAGE showing the expression of phosphorylated ERK and beta-actin in IEC-6 cells that were treated with media (control), LPS, LPS with MDP, LPS with MDP-C which is a non-stimulatory analogue of MDP, and either MDP or MDP-C alone. **p<0.05 vs. control by ANOVA, *p<0.05 vs. LPS by ANOVA.
(§2) The next series of experiments were designed to further define the physiological significance of the finding that MDP reduces TLR4-mediated NFkB translocation in enterocytes, and to evaluate potential mechanisms involved. Since NFkB activation is known to lead to the release of pro-inflammatory cytokines including IL-6, experiments were performed to evaluate whether MDP would alter the extent of IL-6 release from LPS-treated IEC-6 cells. […] To determine the physiological significance of this work in vivo, wild-type and NOD2-knockout mice were injected with LPS (5 mg/kg) in the presence or absence of MDP (1 mg/kg), and serum IL-6 release—a measure of TLR4 signaling in vivo—was determined by ELISA.

IEC-6 enterocytes = assay: TLR4-mediated NFkB (p65) translocation in IEC-6 enterocytes treated with LPS and MDP; type: cell-based; settings: IEC-6 cells
Source text: FIG. 23A-E. MDP prevents TLR4-mediated NFkB translocation in IEC-6 enterocytes. […] Representative of 5 separate experiments. **p<0.05 vs. control by ANOVA, *p<0.05 vs. LPS by ANOVA.
NOD2 activation with MDP inhibits TLR4 signaling in enterocytes. The next experiments were designed to determine whether NOD2 activation with MDP would inhibit TLR4 signaling in enterocytes. To do so, IEC-6 enterocytes—a cell line that represents a model system to study enterocyte biology and which expresses TLR4 (Neal et al., 2006, J Immunol 176:3070-3079)—were treated with LPS in the presence or absence of MDP. Since TLR4 signaling leads to the translocation of NFkB from the cytoplasm into the nucleus, the extent of TLR4 activation was evaluated using an immunofluorescence-based detection assay of the p65 subunit of NFkB. As is shown in FIG. 23A and quantified in FIG. 23E, in control cells, NFkB is localized in the cytoplasm. Upon treatment with LPS ([…], 1 h), NFkB was detected in the nucleus, indicative of NFkB activation (FIG. 23B).

[4] = test system: experimental NEC in newborn mice; assay: Experimental necrotizing enterocolitis in newborn mice, MDP treatment; type: in vivo, mouse
Procedure: FIG. 26A-E. MDP prevents against the development of experimental NEC in vivo in newborn mice. Newborn mice were injected with saline or MDP daily for four days, and then were induced to develop NEC. A. Histology (H&E) of terminal ileum of breast fed mouse treated with saline control. B. Histology (H&E) of terminal ileum of breast fed mouse treated with MDP. C. Histology (H&E) of terminal ileum of mouse pre-treated with saline, after which NEC was induced. D. Histology (H&E) of terminal ileum of mouse pre-treated with MDP, after which conditions which induced NEC in saline-treated mice were applied. E: Severity of NEC in newborn mice as scored by a blinded pediatric pathologist. *p<0.05 vs. NEC in saline-injected mice. Representative of three separate experiments with over 5 animals per group.
NOD2 expression in the intestine is reduced in human and experimental necrotizing enterocolitis. […]
MDP prevents against the development of experimental necrotizing enterocolitis. […] It was also determined that mucosal NOD2 expression is decreased in experimental NEC (FIG. 22I). […]

IEC-6 cells [5] = assay: IL-6 release from LPS-treated IEC-6 cells (ELISA); type: cell-based; settings: IEC-6 cells in vitro
Procedure: as §1, §2

IEC-6 cells [6] = assay: pERK expression in LPS-treated IEC-6 cells (SDS-PAGE); type: cell-based
Procedure: as §1
To further define the effects of MDP on LPS-mediated signaling in enterocytes, IEC-6 cells were treated with LPS in the presence or absence of MDP and the expression of the TLR4 downstream target pERK was assessed by SDS-PAGE. As is shown in FIG. 24C, LPS caused an increase in the expression of pERK compared with untreated cells. […] Taken together, these findings indicate that NOD2 activation with MDP leads to an inhibition of TLR4 signaling in enterocytes in vitro and in vivo.

| Molecule | activation of NFκB ([1]; NEC mice expressing NFkB-GFP, confocal microscopy) | level of expression of mucosal TNF-α in terminal ileum ([1]; NEC mice, RTPCR) | NEC pathology (histology of terminal ileum) ([1]; NEC mice, treated vs untreated) | relative distribution of TLR4 in enterocytes (TLR4; immunohistochemistry) | expression of TLR4 in enterocytes (TLR4; newborn mice, LPS after MDP pre-treatment, terminal ileum mucosal scrapings, RT-PCR) | degree of intestinal inflammation [2] | effect in reducing TLR4 signaling (serum IL-6 release) ([3]; NOD2-knockout mice) | LPS-mediated serum IL-6 release ([3]; wild-type mice) | LPS-induced nuclear translocation of NFkB (IEC-6 enterocytes; LPS in the presence of MDP) | extent of NFkB translocation (IEC-6 enterocytes; MDP alone) | extent of NEC that developed (histology of terminal ileum) ([4]; NOD2-wild-type mice, MDP 1 mg/ml daily for four days, vs saline) | intestinal histology ([4]; breast fed mice, MDP alone) | LPS-induced IL-6 release (IEC-6 cells [5]) | LPS-induced pERK expression (IEC-6 cells [6]) |
| --- | --- | --- | --- | --- | --- | --- | --- | --- | --- | --- | --- | --- | --- | --- |
| 5′ TCGTCGTTTTGTCGTTCCTGACGTT 3′ (listed as DNA, chemistry not fully specified) [CpG-ODN-HS, TLR9 agonist CpG-ODN] | reduced | reduced | inhibition of the NEC pathology | – | – | – | – | – | – | – | – | – | – | – |
| CC(=O)N[C@@H]1[C@@H](O[C@H](C)C(=O)N[C@@H](C)C(=O)N[C@H](CCC(=O)O)C(N)=O)[C@H](O)[C@@H](CO)O[C@H]1O [MDP, muramyl-di-peptide] | – | – | – | does not alter | significant reduction | can limit the degree of intestinal inflammation | less pronounced | significantly reduced | reduction in nuclear translocation | did not significantly alter | striking reduction in the extent of NEC | did not alter intestinal histology | significantly reduced | significantly reduced |
| CC(=O)NC1C(O)OC(CO)C(O)C1OC(C)C(=O)NC(C)C(=O)NC(CCC(=O)O)C(N)=O (stereo not shown) [MDPC] | – | – | – | – | – | – | – | – | – | – | – | – | did not reduce | did not reduce |
